Test results published in patent US12384753B2, “17-beta-hydroxysteroid dehydrogenase type 13 inhibitors and methods of use thereof” (Enanta Pharmaceuticals, Inc., priority 2021, dated 2025).

Biological target: Recombinant human HSD17B13 (Homo sapiens (Human), UniProt Q7Z5P4)
Test: HSD17B13 rapid-fire mass spectrometry assay (RF/MS assay)
Type: biochemical
Settings: inhibition of HSD17B13; LTB4 10 μM, NAD+ 0.5 mM, RT 3 h; IC50 ranges A-E
Method in brief: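 Sf9-expressed human HSD17B13 (80 nM) with 10 μM LTB4 and 0.5 mM NAD+, incubated with compound (0–100 μM) for 3 h at RT in Tris pH 7.5/BSA/Tween-20. After formic acid quench, LTB4 conversion to 12-oxo-LTB4 measured by RapidFire MS/MS. IC50 from normalised residual activity, duplicates.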

Chain of Recombinant human HSD17B13 (Q7Z5P4 20-300): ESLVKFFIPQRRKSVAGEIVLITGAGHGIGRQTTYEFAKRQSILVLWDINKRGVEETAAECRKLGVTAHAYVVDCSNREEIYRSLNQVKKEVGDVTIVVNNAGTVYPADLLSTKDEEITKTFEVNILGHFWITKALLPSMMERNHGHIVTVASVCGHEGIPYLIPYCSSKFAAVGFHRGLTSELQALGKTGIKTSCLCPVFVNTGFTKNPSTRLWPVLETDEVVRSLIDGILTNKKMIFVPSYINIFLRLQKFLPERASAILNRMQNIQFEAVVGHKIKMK

Row | Structure (SMILES) | IC50 [nM]
1 | COc1cc(C(=O)O)c(F)cc1NS(=O)(=O)c1cnc(-c2ccc([C@H]3CC[C@H](C)CC3)cc2)s1 [Example 627] | < 100
2 | CCCCC[C@H]1CC[C@H](c2ccc(-c3ncc(S(=O)(=O)Nc4cc(F)c(C(=O)O)cc4OC)s3)cc2)CC1 [Example 628] | 100 to 500
3 | COc1cc(C(=O)O)c(F)cc1NS(=O)(=O)c1ccc2sc(-c3ccc(C4CCCCC4)cc3)nc2c1 [Example 629] | 100 to 500
4 | COc1cc(C(=O)O)c(F)cc1NS(=O)(=O)c1coc(-c2ccc(C3CCC(OC(=O)N4CCOCC4)CC3)cc2)n1 (centres unmarked) [Example 630] | < 100
5 | COc1cc(C(=O)O)c(F)cc1NS(=O)(=O)c1csc(-c2ccc(NC3CCC(C)(C)CC3)cc2)n1 [Example 631] | < 100
6 | CC[C@H]1CC[C@H](c2ccc(-c3nc4cc(S(=O)(=O)Nc5cc(F)c(C(=O)O)cc5OC)ccc4s3)cc2)CC1 [Example 632] | 100 to 500
7 | COc1cc(C(=O)O)c(F)cc1NS(=O)(=O)c1ncc(-c2ccc(C3=CCC(C(C)(C)C)CC3)cc2)s1 (centres unmarked) [Example 633] | 100 to 500
8 | COc1cc(C(=O)O)c(F)cc1NS(=O)(=O)c1csc(-c2ccc(-c3ccsc3)cc2)n1 [Example 634] | 100 to 500
9 | COc1cc(C(=O)O)c(F)cc1NS(=O)(=O)c1csc(-c2ccc(-c3ccccn3)cc2)n1 [Example 635] | 100 to 500
10 | COc1cc(C(=O)O)c(F)cc1NS(=O)(=O)c1csc(-c2ccc(-c3csc4ccccc34)cc2)n1 [Example 636] | 100 to 500
11 | COc1cc(C(=O)O)c(F)cc1NS(=O)(=O)c1csc(-c2ccc(-c3cc4ccccc4[nH]3)cc2)n1 [Example 637] | 100 to 500
12 | COc1cc(C(=O)O)c(F)cc1NS(=O)(=O)c1csc(-c2ccc(-c3ccc4[nH]ccc4c3)cc2)n1 [Example 638] | < 100
13 | COc1cc(C(=O)O)c(F)cc1NS(=O)(=O)c1csc(-c2ccc(-c3ccc4ncccc4c3)cc2)n1 [Example 639] | < 100
14 | CC[C@H]1CC[C@H](c2ccc(-c3ccnc(S(=O)(=O)Nc4cc(F)c(C(=O)O)cc4OC)c3)cc2)CC1 [Example 640] | 100 to 500
15 | COc1cc(C(=O)O)c(F)cc1NS(=O)(=O)c1cc(-c2ccc([C@H]3CC[C@H](C(F)(F)F)CC3)cc2)ccn1 [Example 641] | 100 to 500
16 | CC[C@H]1CC[C@H](c2ccc(-c3ncc(S(=O)(=O)Nc4cc(F)c(C(=O)O)cc4OC)s3)cc2)CC1 [Example 642] | 100 to 500
17 | COc1cc(C(=O)O)c(F)cc1NS(=O)(=O)c1cnc(-c2ccc(C3CCC(c4ccccc4)CC3)cc2)s1 (centres unmarked) [Example 643] | 100 to 500
18 | COc1cc(C(=O)O)c(F)cc1NS(=O)(=O)c1csc(-c2ccc(-c3cn[nH]c3)cc2)n1 [Example 644] | 100 to 500
19 | COc1cc(C(=O)O)c(F)cc1NS(=O)(=O)c1csc(-c2ccc(-c3cccs3)cc2)n1 [Example 645] | 100 to 500
20 | COc1cc(C(=O)O)c(F)cc1NS(=O)(=O)c1csc(-c2ccc(-c3cc4ccccc4o3)cc2)n1 [Example 646] | < 100
21 | COc1cc(C(=O)O)c(F)cc1NS(=O)(=O)c1csc(-c2ccc(-c3cccc4[nH]ccc34)cc2)n1 [Example 647] | < 100

Row | Structure (SMILES) | IC50 [nM]
22 | CC[C@H]1CC[C@H](c2ccc(-c3nc(S(=O)(=O)Nc4ccc5c(O)cccc5c4OC)cs3)cc2)CC1 [Example 648] | 1000 to 100000
23 | COc1c(NS(=O)(=O)c2csc(-c3ccc([C@H]4CC[C@H](C(F)(F)F)CC4)cc3)n2)ccc2c(O)cccc12 [Example 649] | 1000 to 100000
24 | COc1cc(C(=O)O)c(F)cc1NS(=O)(=O)c1ccc2sc(-c3ccc([C@H]4CC[C@H](C(F)(F)F)CC4)cc3)nc2c1 [Example 650] | 100 to 500
25 | COc1cc(C(=O)O)c(F)cc1NS(=O)(=O)c1csc(-c2ccc(-c3cnoc3)cc2)n1 [Example 651] | 100 to 500
26 | COc1cc(C(=O)O)c(F)cc1NS(=O)(=O)c1csc(-c2ccc(-c3ccncc3)cc2)n1 [Example 652] | 100 to 500
27 | COc1cc(C(=O)O)c(F)cc1NS(=O)(=O)c1csc(-c2ccc(-c3ccc4c(c3)NCCO4)cc2)n1 [Example 653] | < 100
28 | COc1cc(C(=O)O)c(F)cc1NS(=O)(=O)c1csc(-c2ccc(-c3ccc4cnccc4c3)cc2)n1 [Example 654] | 100 to 500
29 | COc1cc(C(=O)O)c(F)cc1NS(=O)(=O)c1csc(-c2ccc(-c3cncc(F)c3)cc2)n1 [Example 655] | 100 to 500
30 | COc1cc(C(=O)O)c(F)cc1NS(=O)(=O)c1cnn(-c2ccc(C3CCCCC3)cc2)c1 [Example 656] | 100 to 500
31 | CC[C@H]1CC[C@H](c2ccc(-c3nc4ccc(S(=O)(=O)Nc5cc(F)c(C(=O)O)cc5OC)cc4s3)cc2)CC1 [Example 658] | 1000 to 100000
32 | COc1cc(C(=O)O)c(F)cc1NS(=O)(=O)c1ccc2nc(-c3ccc([C@H]4CC[C@H](C(F)(F)F)CC4)cc3)sc2c1 [Example 659] | 500 to 1000
33 | CC1(C)CCC(c2ccc(-c3nc(S(=O)(=O)Nc4ccc(C(=O)O)cc4)cs3)cc2)CC1 [Example 660] | 100 to 500
34 | COc1cc(C(=O)O)c(F)cc1NS(=O)(=O)c1ccc2nc(-c3ccc(C4CCCCC4)cc3)sc2c1 [Example 661] | 100 to 500
35 | COc1cc(C(=O)O)c(F)cc1NS(=O)(=O)c1ccc2sc(-c3ccc(C4CCCC4)cc3)nc2c1 [Example 662] | 100 to 500
36 | COc1cc(C(=O)O)c(F)cc1NS(=O)(=O)c1ccc2sc(-c3ccc(C4CCC4)cc3)nc2c1 [Example 663] | 100 to 500
37 | COc1cc(C(=O)O)c(F)cc1NS(=O)(=O)c1ccc2sc(-c3ccc(C4CCC(C)(C)CC4)cc3)nc2c1 [Example 664] | 100 to 500
38 | COc1cc(C(=O)O)c(F)cc1NS(=O)(=O)c1nc(-c2ccc(C3CCCCC3)cc2)sc1C [Example 665] | 100 to 500
39 | COc1cc(C(=O)O)c(F)cc1NS(=O)(=O)c1nc(-c2ccc(C3CCC(C)(C)CC3)cc2)sc1C [Example 666] | 100 to 500
40 | CC[C@H]1CC[C@H](c2ccc(-c3nc(S(=O)(=O)Nc4cc(F)c(C(=O)O)cc4OC)c(C)s3)cc2)CC1 [Example 667] | 100 to 500
41 | COc1cc(C(=O)O)c(F)cc1NS(=O)(=O)c1ccc2sc(-c3ccc(-c4ccccc4)cc3)nc2c1 [Example 668] | 100 to 500
42 | COc1cc(C(=O)O)c(F)cc1NS(=O)(=O)c1ccc2sc(-c3ccc(C4CC4)cc3)nc2c1 [Example 669] | 100 to 500

Row | Structure (SMILES) | IC50 [nM]
43 | CC[C@H]1CC[C@H](c2ccc(-c3nc4cc(S(=O)(=O)Nc5cc(F)c(C(=O)O)cc5OC)ccc4o3)cc2)CC1 [Example 670, 4-((2-(4-((1r,4r)-4-ethylcyclohexyl)phenyl)benzo[d]oxazole)-5-sulfonamido)-2-fluoro-5-methoxybenzoic acid] | 100 to 500
44 | COc1cc(C(=O)O)cc(F)c1NS(=O)(=O)c1csc(-c2ccc(C3CCC(C)(C)CC3)cc2C(F)(F)F)n1 [Example 671] | < 100
45 | COc1cc(C(=O)O)c(F)cc1NS(=O)(=O)c1coc(-c2ccc(C3=CCC(C(C)C)CC3)cc2C(F)(F)F)n1 (centres unmarked) [Example 672] | < 100
46 | COc1cc(C(=O)O)c(F)cc1NS(=O)(=O)c1coc(-c2ccc([C@H]3CC[C@@H](C(C)C)CC3)cc2C(F)(F)F)n1 [Example 673] | 100 to 500
47 | COc1cc(C(=O)O)c(F)cc1NS(=O)(=O)c1coc(-c2ccc([C@H]3CC[C@H](C(C)C)CC3)cc2C(F)(F)F)n1 [Example 674] | < 100
48 | COc1cc(C(=O)O)c(F)cc1NS(=O)(=O)c1coc(-c2ccc(C3=CCC(C)(C)CC3)cc2C(F)(F)F)n1 [Example 675] | < 100
49 | COc1cc(C(=O)O)c(F)cc1NS(=O)(=O)c1coc(-c2ccc(C3CCC(C)(C)CC3)cc2C(F)(F)F)n1 [Example 676] | < 100
50 | COc1cc(C(=O)O)c(F)cc1NS(=O)(=O)c1coc(-c2ccc(C3=CCC(C(F)(F)F)CC3)cc2C(F)(F)F)n1 (centres unmarked) [Example 677] | < 100
51 | COc1cc(C(=O)O)c(F)cc1NS(=O)(=O)c1coc(-c2ccc([C@H]3CC[C@@H](C(F)(F)F)CC3)cc2C(F)(F)F)n1 [Example 678] | < 100
52 | COc1cc(C(=O)O)c(F)cc1NS(=O)(=O)c1coc(-c2ccc([C@H]3CC[C@H](C(F)(F)F)CC3)cc2C(F)(F)F)n1 [Example 679] | < 100
53 | COc1cc(C(=O)O)c(OC)cc1NS(=O)(=O)c1csc(-c2ccc(C3CCC(C)(C)CC3)cc2C(F)(F)F)n1 [Example 680] | < 100
54 | COc1cc(C(=O)O)c(-c2ccccc2)cc1NS(=O)(=O)c1csc(-c2ccc(C3CCC(C)(C)CC3)cc2C(F)(F)F)n1 [Example 681] | 1000 to 100000
55 | COc1cc(C(=O)O)c(F)cc1N(C)S(=O)(=O)c1csc(-c2ccc(C3CCC(C)(C)CC3)cc2C(F)(F)F)n1 [Example 683] | 100 to 500
56 | COc1cc(C(=O)O)c(F)cc1NS(=O)(=O)c1cnn(-c2ccc(C3CCC(C)(C)CC3)cc2)c1 [Example 684] | 100 to 500
57 | COc1cc(C(=O)O)c(F)cc1NS(=O)(=O)c1cnn(-c2ccc([C@H]3CC[C@@H](C(F)(F)F)CC3)cc2)c1 [Example 685, 2-fluoro-5-methoxy-4-((1-(4-((1s,4s)-4-(trifluoromethyl)cyclohexyl)phenyl)-1H-pyrazole)-4-sulfonamido)benzoic acid] | 100 to 500
58 | COc1cc(C(=O)O)c(F)cc1NS(=O)(=O)c1cnn(-c2ccc([C@H]3CC[C@H](C(F)(F)F)CC3)cc2)c1 [Example 686, 2-fluoro-5-methoxy-4-((1-(4-((1r,4r)-4-(trifluoromethyl)cyclohexyl)phenyl)-1H-pyrazole)-4-sulfonamido)benzoic acid] | 100 to 500
59 | COc1cc(C(=O)O)c(F)cc1NS(=O)(=O)c1cnn(-c2ccc([C@H]3CC[C@@H](C(C)C)CC3)cc2)c1 [Example 687] | 100 to 500
60 | COc1cc(C(=O)O)c(F)cc1NS(=O)(=O)c1cnn(-c2ccc([C@H]3CC[C@H](C(C)C)CC3)cc2)c1 [Example 688] | 100 to 500
61 | COc1cc(C(=O)O)c(F)cc1NS(=O)(=O)c1ccn(-c2ccc(C3CCCCC3)cc2)n1 [Example 689] | 100 to 500
62 | COc1cc(C(=O)O)c(F)cc1NS(=O)(=O)c1ccn(-c2ccc(C3CCC(C)(C)CC3)cc2)n1 [Example 690] | 100 to 500
